Common to all, as to assay type: in vivo, human
The test system of data set [1] is patients with amyotrophic lateral sclerosis. The data set can be described thus: Example 1 clinical study: clinical adverse events. As to conditions: Active group, 1200 mg once a day oral for 12 months plus standard riluzole. Here is the method: (§1) As a clinical study, double blind placebo-controlled parallel group study was carried out on patients with amyotrophic lateral sclerosis, under the following conditions.
(§2) (1) Active group: (2R)-2-propyloctanoic acid 1200 mg (four soft capsules comprising 300 mg of (2R)-2-propyloctanoic acid per capsule);
(§3) Both Active and Placebo groups are administered for 12 months.
(§4) Riluzole was administered to all subjects in Active and Placebo groups in the manner of standard therapy (riluzole 50 mg tablet: one tablet twice a day (before breakfast and dinner), oral daily dose of 100 mg).
(§5) Evaluation method: Incidence and content (e.g., symptom, causal association, etc.) of clinical adverse events were monitored for each subject.
Evaluation time: Throughout the study.

A further data set has as its system ALS patients. Briefly: Studies of the inventors: (2R)-2-propyloctanoic acid used alone in ALS patients. As to conditions: without riluzole.
The subject of data set [2] is patients with amyotrophic lateral sclerosis. Briefly: Example 1 clinical study: respiratory function (slow vital capacity). The settings on record: Active group. Here is the method:
as §1, §2, §3, §4
(§6) Evaluation method: Slow vital capacity (SVC) of the subject was measured at the following evaluation times. SVC was measured three times in the sitting position, allowing sufficient recovery time between each manoeuvre. The highest SVC value was recorded.
Evaluation time: 1, 2, 4, 6, 8, 10 and 12 month(s) from the start of administration.
Suppression of respiratory disability and improvement in survival rate are shown by oral administration of (2R)-2-propyloctanoic acid in the patient within about 14 months after the onset of muscular weakness (Active group: 55 patients, Placebo group: 54 patients. Both Active and Placebo groups are treated with standard riluzole therapy). Hereinafter, each result is described in detail, […]

For data set [3] the test system is unchanged. Briefly: Example 2 clinical study: safety measurements. The settings on record: 1200 mg once a day oral for 18 months plus standard riluzole. How it is done: as §1, §2
(§7) Both Active and Placebo group are administered for 18 months.
(§8) Riluzole was administered to all subjects in Active and Placebo group in the manner of standard therapy (riluzole 50 mg tablet: one tablet twice a day (before breakfast and dinner), oral daily dose of 100 mg).
Evaluation method: Blood pressure and pulse of the subject were recorded at the following evaluation times.
Evaluation method: 12 lead ECG was conducted at the following evaluation times. Sinus rhythm, RR interval, PR interval, QRS duration, QT/QTc, and so forth were assessed.
Evaluation method: Weight of the subject was measured at the following evaluation times.
Evaluation method: Clinical laboratory test (haematology, biochemistry and urinalysis) of the subject was conducted at the following evaluation times.
as §5

Data set [4] has the same test system. Briefly: Example 1 clinical study: survival. The settings on record: Active group, 1200 mg once a day oral for 12 months plus standard riluzole; patients within about 14 months after onset of muscular weakness. Here is the method:
As a clinical study, double blind placebo-controlled parallel group study was carried out on patients with amyotrophic lateral sclerosis, under the following conditions. […] (1) Active group: (2R)-2-propyloctanoic acid 1200 mg (four soft capsules comprising 300 mg of (2R)-2-propyloctanoic acid per capsule); Both Active and Placebo groups are administered for 12 months. Riluzole was administered to all subjects in Active and Placebo groups in the manner of standard therapy (riluzole 50 mg tablet: one tablet twice a day (before breakfast and dinner), oral daily dose of 100 mg). Evaluation method: Death was recorded for each subject, if and when it occurs. Evaluation time. Throughout the study. Suppression of respiratory disability and improvement in survival rate are shown by oral administration of (2R)-2-propyloctanoic acid in the patient within about 14 months after the onset of muscular weakness (Active group: 55 patients, Placebo group: 54 patients. Both Active and Placebo groups are treated with standard riluzole therapy). Hereinafter, each result is described in detail, […]

Data set [5] has the same test system. Briefly: Example 2 clinical study: efficacy measurements. As to conditions: 1200 mg once a day oral for 18 months plus standard riluzole; patients less than 14 months from onset of muscular weakness. Here is the method:
as §1
(3) Less than 14 months from onset of muscular weakness;
as §2, §7, §8, §6
Evaluation method: Functional status of the subject was assessed at the following evaluation times using revised amyotrophic lateral sclerosis functional rating scale (ALSFRS-R) shown in above-mentioned Table 1 to 13.
Evaluation method; Muscle strength of the subject was assessed at the following evaluation times using medical research council scale shown in before-mentioned Table 14. […]
Evaluation method: Death, bronchotomy, and using noninvasive ventilator were recorded for each subject, if and when it occurs. […]

This is an account of results in patent US20090149518A1, “PHARMACEUTICAL FOR PROTECTION OF MOTOR NERVE IN PATIENT WITH AMYOTROPHIC LATERAL SCLEROSIS” (ONO PHARMACEUTICAL CO., LTD., priority 2005, published 2009).

On to `CCCCCC[C@@H](CCC)C(=O)O` [(2R)-2-propyloctanoic acid], for which, in data set [1], the “frequency of adverse event” value worked out at 89% and the “frequency of serious adverse event” value came out at 49%. The “effect on ALS patients when used alone” value in the data set on ALS patients is “cannot exert any satisfactory effect”. Further, the “reduction of slow vital capacity (% of the predicted value) at 12 months from the start of administration compared to before-administration” value in data set [2] (1200 mg once a day oral for 12 months plus standard riluzole 100 mg/day, patients within about 14 months after onset of muscular weakness (55 patients)) is reported as 38.27%. The “patients whose slow vital capacity was lowered to 50% or less of predicted in 12 months” value in data set [2] (1200 mg once a day oral plus standard riluzole, patients within about 14 months after onset of muscular weakness, result of estimation) is “about 35 % of patients”. In addition, in data set [3], the “safety in ALS patient” value is reported as “safe”. For the same compound, in data set [4], the “mortality in the dosing period” value was 9 of 55 and the survival rate amounted to 84%. Further, in data set [5], the “effectiveness on suppressing muscular weakness, suppressing respiratory disability, extending survival period, improvement in quality-of-life measures” value was “shows its effectiveness on at least one of”.
